The target of the data set is T1, Oatp1b2 (Mus musculus, UniProt Q9JJL3).
T1 sequence (Q9JJL3 1-689): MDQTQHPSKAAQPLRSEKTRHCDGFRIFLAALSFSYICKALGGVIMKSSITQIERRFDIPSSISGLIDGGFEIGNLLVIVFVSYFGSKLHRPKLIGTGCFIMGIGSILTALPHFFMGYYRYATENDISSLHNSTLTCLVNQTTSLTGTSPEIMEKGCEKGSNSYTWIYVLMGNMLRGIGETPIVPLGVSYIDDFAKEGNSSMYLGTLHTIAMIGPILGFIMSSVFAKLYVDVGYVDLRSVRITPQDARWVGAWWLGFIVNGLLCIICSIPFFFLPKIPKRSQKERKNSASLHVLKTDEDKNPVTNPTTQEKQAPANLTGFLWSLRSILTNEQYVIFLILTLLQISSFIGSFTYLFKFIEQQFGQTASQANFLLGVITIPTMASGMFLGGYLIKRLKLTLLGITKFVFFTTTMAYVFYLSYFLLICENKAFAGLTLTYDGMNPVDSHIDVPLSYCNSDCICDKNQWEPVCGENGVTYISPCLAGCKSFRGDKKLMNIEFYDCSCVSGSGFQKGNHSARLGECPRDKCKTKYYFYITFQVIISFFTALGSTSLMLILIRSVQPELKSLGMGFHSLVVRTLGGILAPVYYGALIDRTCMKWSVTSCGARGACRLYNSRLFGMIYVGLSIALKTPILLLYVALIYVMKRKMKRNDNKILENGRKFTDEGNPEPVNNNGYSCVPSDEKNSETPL
The data set is described as follows: Untargeted metabolomics of plasma from untreated wild-type and Oatp1b2(−/−) mice. To be noted: for Fold of Change KO/WT: plasma of untreated Oatp1b2-deficient (KO) vs wild-type (WT) mice, semi-quantitative, positive = higher in KO, n = 6 per group; for Mean value KO: plasma of untreated Oatp1b2-deficient mice; for Mean value KO / Mean value WT: raw area counts rescaled to median = 1; for Mean value WT: plasma of untreated wild-type mice.

As to `O=C(O)[C@H]1OC(O)[C@H](O)[C@@H](O)[C@@H]1O` (mixture of isomers) [glucuronate], the “Fold of Change KO/WT” value came out at 3.17, the “Mean value KO” value turned out to be 1.59 and the “Mean value WT” value is listed as “.500”.

Turning to `CCCCCCCCCCCCCCCC(=O)OC[C@H](COP(=O)([O-])OCC[N+](C)(C)C)OC(=O)CCCCCCCCCCCCCCC` [1,2-dipalmitoyl-GPC (16:0/16:0)], the “Fold of Change KO/WT” value was determined as 1.31, the “Mean value KO” value was found to be 1.18 and the “Mean value WT” value was “.901”.

For the compound `CCCCCCCCCCCCCCCC(=O)OC[C@H](COP(=O)(O)OCCN)OC(=O)CCCCCCCCCCCCCCC` [1,2-dipalmitoyl-GPE (16:0/16:0)], the “Fold of Change KO/WT” value was found to be 2.02, the “Mean value KO” value is listed as 1.34 and the “Mean value WT” value is “.664”.

Regarding `CCCCCCCC/C=C\CCCCCC/C=C\OC[C@@H](O)COP(=O)(O)OCCN` [1-(1-enyl-oleoyl)-GPE (P-18:1)], the “Fold of Change KO/WT” value is given as 2.16, the “Mean value KO” value was determined as 1.45 and the “Mean value WT” value is “.672”.

In the case of `CCCCC/C=C\C/C=C\C/C=C\C/C=C\CCCC(=O)O[C@H](CO/C=C\CCCCCCCCCCCCCC)COP(=O)([O-])OCC[N+](C)(C)C` [1-(1-enyl-palmitoyl)-2-arachidonoyl-GPC (P-16:0/20:4)], the “Fold of Change KO/WT” value worked out at 1.46, the “Mean value KO” value came to 1.30 and the “Mean value WT” value was “.891”.

With `CCCCC/C=C\C/C=C\C/C=C\C/C=C\CCCC(=O)O[C@H](CO/C=C\CCCCCCCCCCCCCC)COP(=O)(O)OCCN` [1-(1-enyl-palmitoyl)-2-arachidonoyl-GPE (P-16:0/20:4)], the “Fold of Change KO/WT” value stood at 1.34, the “Mean value KO” value is recorded as 1.13 and the “Mean value WT” value is “.839”.

For `CCCCC/C=C\C/C=C\CCCCCCCC(=O)O[C@H](CO/C=C\CCCCCCCCCCCCCC)COP(=O)(O)OCCN` [1-(1-enyl-palmitoyl)-2-linoleoyl-GPE (P-16:0/18:2)], the “Fold of Change KO/WT” value is recorded as 1.34, the “Mean value KO” value stood at 1.16 and the “Mean value WT” value is given as “.862”.

On to `CCCCCCCC/C=C\CCCCCCCC(=O)O[C@H](CO/C=C\CCCCCCCCCCCCCC)COP(=O)(O)OCCN` [1-(1-enyl-palmitoyl)-2-oleoyl-GPE (P-16:0/18:1)], for which the “Fold of Change KO/WT” value amounted to 1.32, the “Mean value KO” value was determined as 1.18 and the “Mean value WT” value is recorded as “.895”.

Take `CCCCCCCCCCCCCC/C=C\OC[C@H](COP(=O)([O-])OCC[N+](C)(C)C)OC(=O)CCCCCCCCCCCCCCC` [1-(1-enyl-palmitoyl)-2-palmitoyl-GPC (P-16:0/16:0)]: the “Fold of Change KO/WT” value was 1.24, the “Mean value KO” value is on record as 1.14 and the “Mean value WT” value is reported as “.919”.

As for `CCCCCCCCCCCCCCC=COCC(O)COP(=O)([O-])OCC[N+](C)(C)C` (stereo not drawn) [1-(1-enyl-palmitoyl)-GPC (P-16:0)], the “Fold of Change KO/WT” value is 1.59, the “Mean value KO” value amounted to 1.26 and the “Mean value WT” value is “.795”.

In the case of `CCCCCCCCCCCCCC/C=C\OC[C@@H](O)COP(=O)(O)OCCN` [1-(1-enyl-palmitoyl)-GPE (P-16:0)], the “Fold of Change KO/WT” value worked out at 1.79, the “Mean value KO” value was 1.30 and the “Mean value WT” value is “.725”.

As for `CCCCC/C=C\C/C=C\C/C=C\C/C=C\CCCC(=O)O[C@H](CO/C=C\CCCCCCCCCCCCCCCC)COP(=O)(O)OCCN` [1-(1-enyl-stearoyl)-2-arachidonoyl-GPE (P-18:0/20:4)], the “Fold of Change KO/WT” value was 1.33, the “Mean value KO” value stood at 1.10 and the “Mean value WT” value was “.828”.

With `CCCCCCCCCCCCCCCC/C=C\OC[C@@H](O)COP(=O)(O)OCCN` [1-(1-enyl-stearoyl)-GPE (P-18:0)], the “Fold of Change KO/WT” value came to 1.72, the “Mean value KO” value came to 1.28 and the “Mean value WT” value was “.747”.

With `CCCCC/C=C\C/C=C\C/C=C\C/C=C\CCCC(=O)OC[C@@H](O)COP(=O)(O)O` [1-arachidonoyl-GPA (20:4)], the “Fold of Change KO/WT” value stood at 1.80, the “Mean value KO” value is reported as 1.17 and the “Mean value WT” value is “.652”.

With `CCCCC/C=C\C/C=C\C/C=C\C/C=C\CCCC(=O)OC[C@@H](O)COP(=O)([O-])OCC[N+](C)(C)C` [1-arachidonoyl-GPC (20:4n6)], the “Fold of Change KO/WT” value came out at 1.63, the “Mean value KO” value is recorded as 1.27 and the “Mean value WT” value is listed as “.775”.

As to `CCCCC/C=C\C/C=C\C/C=C\C/C=C\CCCC(=O)OC[C@@H](O)COP(=O)(O)OCCN` [1-arachidonoyl-GPE (20:4n6)], the “Fold of Change KO/WT” value stood at 1.49, the “Mean value KO” value stood at 1.20 and the “Mean value WT” value is recorded as “.803”.

For `CCCCC/C=C\C/C=C\C/C=C\C/C=C\CCCC(=O)OC[C@@H](O)COP(=O)(O)OC1C(O)C(O)C(O)C(O)C1O` (stereo partly drawn) [1-arachidonoyl-GPI (20:4)], the “Fold of Change KO/WT” value is given as 1.48, the “Mean value KO” value was determined as 1.11 and the “Mean value WT” value was “.754”.

For `CCCCCCCCCCCCCCCCCCCCCCCC(=O)OC[C@@H](O)COP(=O)([O-])OCC[N+](C)(C)C` [1-lignoceroyl-GPC (24:0)], the “Fold of Change KO/WT” value amounted to 1.36, the “Mean value KO” value is reported as 1.16 and the “Mean value WT” value is given as “.847”.

For `CC/C=C\C/C=C\C/C=C\CCCCCCCC(=O)OC[C@@H](O)COP(=O)([O-])OCC[N+](C)(C)C` [1-linolenoyl-GPC (18:3)], the “Fold of Change KO/WT” value worked out at 2.13, the “Mean value KO” value was 1.41 and the “Mean value WT” value is recorded as “.661”.

`CCCCC/C=C\C/C=C\C/C=C\C/C=C\CCCC(=O)O[C@H](COC(=O)CCCCCCC/C=C\C/C=C\CCCCC)COP(=O)([O-])OCC[N+](C)(C)C` [1-linoleoyl-2-arachidonoyl-GPC (18:2/20:4n6)]: the “Fold of Change KO/WT” value is on record as 1.36, the “Mean value KO” value was found to be 1.15 and the “Mean value WT” value is reported as “.846”.

In the case of `CCCCC/C=C\C/C=C\C/C=C\C/C=C\CCCC(=O)O[C@H](COC(=O)CCCCCCC/C=C\C/C=C\CCCCC)COP(=O)(O)OCCN` [1-linoleoyl-2-arachidonoyl-GPE (18:2/20:4)], the “Fold of Change KO/WT” value amounted to 1.48, the “Mean value KO” value came out at 1.26 and the “Mean value WT” value is on record as “.854”.

As to `CC/C=C\C/C=C\C/C=C\CCCCCCCC(=O)O[C@H](COC(=O)CCCCCCC/C=C\C/C=C\CCCCC)COP(=O)([O-])OCC[N+](C)(C)C` [1-linoleoyl-2-linolenoyl-GPC (18:2/18:3)], the “Fold of Change KO/WT” value is 1.51, the “Mean value KO” value came to 1.40 and the “Mean value WT” value is “.923”.

As for `CCCCC/C=C\C/C=C\CCCCCCCC(=O)OC[C@@H](O)COP(=O)(O)O` [1-linoleoyl-GPA (18:2)], the “Fold of Change KO/WT” value is recorded as 2.36, the “Mean value KO” value turned out to be 1.41 and the “Mean value WT” value is “.595”.

In the case of `CCCCC/C=C\C/C=C\CCCCCCCC(=O)OC[C@@H](O)COP(=O)([O-])OCC[N+](C)(C)C` [1-linoleoyl-GPC (18:2)], the “Fold of Change KO/WT” value amounted to 1.62, the “Mean value KO” value came to 1.22 and the “Mean value WT” value was “.752”.

Turning to `CCCCC/C=C\C/C=C\CCCCCCCC(=O)OC[C@@H](O)COP(=O)(O)OCCN` [1-linoleoyl-GPE (18:2)], the “Fold of Change KO/WT” value is listed as 1.94, the “Mean value KO” value came to 1.42 and the “Mean value WT” value is reported as “.736”.

Consider `CCCCCC=CCC=CCCCCCCCC(=O)OCC(O)COP(=O)(O)OCC(O)CO` (stereo not drawn) [1-linoleoyl-GPG (18:2)], for which the “Fold of Change KO/WT” value amounted to 3.71, the “Mean value KO” value stood at 1.96 and the “Mean value WT” value is listed as “.529”.

With `CCCCC/C=C\C/C=C\CCCCCCCC(=O)OC[C@@H](O)COP(=O)(O)OC1[C@H](O)[C@H](O)C(O)[C@H](O)[C@H]1O` (stereo partly drawn) [1-linoleoyl-GPI (18:2)], the “Fold of Change KO/WT” value was 1.65, the “Mean value KO” value amounted to 1.27 and the “Mean value WT” value is on record as “.765”.

With `CCCCC/C=C\C/C=C\C/C=C\C/C=C\CCCC(=O)O[C@H](COC(=O)CCCCCCC/C=C\CCCCCCCC)COP(=O)(O)OC1C(O)C(O)C(O)C(O)C1O` (stereo partly drawn) [1-oleoyl-2-arachidonoyl-GPI (18:1/20:4)], the “Fold of Change KO/WT” value was determined as 2.01, the “Mean value KO” value is recorded as 1.37 and the “Mean value WT” value is on record as “.681”.

Take `CC/C=C\C/C=C\C/C=C\C/C=C\C/C=C\C/C=C\CCC(=O)O[C@H](COC(=O)CCCCCCC/C=C\CCCCCCCC)COP(=O)([O-])OCC[N+](C)(C)C` [1-oleoyl-2-docosahexaenoyl-GPC (18:1/22:6)]: the “Fold of Change KO/WT” value is 1.34, the “Mean value KO” value is 1.17 and the “Mean value WT” value is “.874”.

For `CCCCCCCC/C=C\CCCCCCCC(=O)OC[C@@H](O)COP(=O)([O-])OCC[N+](C)(C)C` [1-oleoyl-GPC (18:1)], the “Fold of Change KO/WT” value is 1.78, the “Mean value KO” value worked out at 1.30 and the “Mean value WT” value is “.732”.

Values taken from paper PMC9502272, “A Metabolomics Approach for Predicting OATP1B-Type Transporter-Mediated Drug–Drug Interaction Liabilities” (Pharmaceutics, 2022).
